Experimental data reported in ChEMBL document CHEMBL1201862, “PubChem BioAssay data set” (2004).
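Values below derive from 48-hour exposures of cells grown in 96-well plates, with endpoints linearly interpolated between the two concentrations bracketing the appropriate inhibition level. The concentration for 50% growth inhibition is given as GI50.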 Activity calls are given as the source filed them. Cut-off read from the data, not from the text of the source: active = GI50 up to about 1.1 µM and inactive = higher.

Assays:
Test in all cases: NCI tumour cell line growth inhibition, 48 h
[1] = test system: KM12
[2] = test system: HT-29
[3] = test system: DMS-114
[4] = test system: IGROV-1
[5] = test system: SK-MEL-28
[6] = test system: NCI-H460
[7] = test system: SW-620
[8] = test system: KM-20L2
[9] = test system: NCI-H23
[10] = test system: HL-60
[11] = test system: HOP-18
[12] = test system: SNB-78
[13] = test system: LOX IMVI
[14] = test system: RXF 631
[15] = test system: ACHN
[16] = test system: SF-539
[17] = test system: LXFL 529
[18] = test system: SK-OV-3
[19] = test system: HOP-62
[20] = test system: M14
[21] = test system: Malme-3M
[22] = test system: NCI-H226
[23] = test system: COLO 205
[24] = test system: HCT-116
[25] = test system: TK-10
[26] = test system: OVCAR-8
[27] = test system: HCT-15
[28] = test system: A498
[29] = test system: UO-31
[30] = test system: SK-MEL-5
[31] = test system: OVCAR-3
[32] = test system: DLD-1
[33] = test system: SF-295
[34] = test system: RXF 393
[35] = test system: EKVX
[36] = test system: U-251
[37] = test system: 786-0
[38] = test system: M19-MEL
[39] = test system: SF-268
[40] = test system: DMS-273
[41] = test system: UACC-62
[42] = test system: XF498
[43] = test system: CCRF-CEM
[44] = test system: NCI-H522
[45] = test system: SNB-75
[46] = test system: A549
[47] = test system: HOP-92
[48] = test system: OVCAR-5
[49] = test system: SK-MEL-2
[50] = test system: UACC-257
[51] = test system: RPMI-8226
[52] = test system: K562
[53] = test system: CAKI-1
[54] = test system: SN12C
[55] = test system: SR
[56] = test system: OVCAR-4
[57] = test system: MOLT-4
[58] = test system: HCC 2998
[59] = test system: SNB-19

Nc1nc2ncn(CC(O)COC(=O)c3ccccc3)c2c(=O)[nH]1 (stereo not given)
GI50 [1]: > 100 µM (inactive)
GI50 [2]: > 100 µM (inactive)
GI50 [3]: > 100 µM (inactive)
GI50 [4]: > 100 µM (inactive)
GI50 [5]: > 100 µM (inactive)
GI50 [6]: > 100 µM (inactive)
GI50 [7]: > 100 µM (inactive)
GI50 [8]: > 100 µM (inactive)
GI50 [9]: > 100 µM (inactive)
GI50 [10]: > 100 µM (inactive)
GI50 [11]: > 100 µM (inactive)
GI50 [12]: 48.3 µM (inactive)
GI50 [13]: > 100 µM (inactive)
GI50 [14]: > 100 µM (inactive)
GI50 [15]: > 100 µM (inactive)
GI50 [16]: > 100 µM (inactive)
GI50 [17]: > 100 µM (inactive)
GI50 [18]: > 100 µM (inactive)
GI50 [19]: > 100 µM (inactive)
GI50 [20]: > 100 µM (inactive)
GI50 [21]: > 100 µM (inactive)
GI50 [22]: > 100 µM (inactive)
GI50 [23]: > 100 µM (inactive)
GI50 [24]: > 100 µM (inactive)
GI50 [25]: > 100 µM (inactive)
GI50 [26]: > 100 µM (inactive)
GI50 [27]: > 100 µM
GI50 [28]: > 100 µM (inactive)
GI50 [29]: > 100 µM (inactive)
GI50 [30]: > 100 µM (inactive)
GI50 [31]: > 100 µM (inactive)
GI50 [32]: > 100 µM (inactive)
GI50 [33]: > 100 µM (inactive)
GI50 [34]: > 100 µM (inactive)
GI50 [35]: > 100 µM (inactive)
GI50 [36]: > 100 µM (inactive)
GI50 [37]: > 100 µM (inactive)
GI50 [38]: > 100 µM (inactive)
GI50 [39]: > 100 µM (inactive)
GI50 [40]: > 100 µM (inactive)
GI50 [41]: > 100 µM (inactive)
GI50 [42]: > 100 µM (inactive)
GI50 [43]: > 100 µM (inactive)
GI50 [44]: > 100 µM (inactive)
GI50 [45]: > 100 µM (inactive)
GI50 [46]: > 100 µM (inactive)
GI50 [47]: > 100 µM (inactive)
GI50 [48]: > 100 µM (inactive)
GI50 [49]: > 100 µM (inactive)
GI50 [50]: > 100 µM (inactive)
GI50 [51]: > 100 µM (inactive)
GI50 [52]: > 100 µM (inactive)
GI50 [53]: > 100 µM (inactive)
GI50 [54]: > 100 µM (inactive)
GI50 [55]: > 100 µM (inactive)
GI50 [56]: > 100 µM (inactive)

CC(C(=O)c1ccc(Cl)cc1)/C(=N/NC(=O)NN)C(=O)Nc1cccc(C(F)(F)F)c1 (stereo not given)
GI50 [2]: > 100 µM (inactive)
GI50 [3]: > 100 µM (inactive)
GI50 [4]: > 100 µM (inactive)
GI50 [5]: > 100 µM (inactive)
GI50 [6]: > 100 µM (inactive)
GI50 [7]: > 100 µM (inactive)
GI50 [8]: > 100 µM (inactive)
GI50 [9]: > 100 µM (inactive)
GI50 [57]: > 100 µM (inactive)
GI50 [10]: > 100 µM (inactive)
GI50 [11]: 56.5 µM (inactive)
GI50 [12]: > 100 µM (inactive)
GI50 [13]: > 100 µM (inactive)
GI50 [14]: > 100 µM (inactive)
GI50 [15]: > 100 µM (inactive)
GI50 [16]: > 100 µM (inactive)
GI50 [17]: > 100 µM (inactive)
GI50 [18]: > 100 µM (inactive)
GI50 [20]: > 100 µM (inactive)
GI50 [21]: > 100 µM (inactive)
GI50 [22]: > 100 µM (inactive)
GI50 [23]: > 100 µM (inactive)
GI50 [24]: > 100 µM (inactive)
GI50 [25]: > 100 µM (inactive)
GI50 [26]: > 100 µM (inactive)
GI50 [27]: > 100 µM
GI50 [28]: > 100 µM (inactive)
GI50 [29]: > 100 µM (inactive)
GI50 [30]: > 100 µM (inactive)
GI50 [31]: > 100 µM (inactive)
GI50 [32]: > 100 µM (inactive)
GI50 [33]: > 100 µM (inactive)
GI50 [34]: 22.8 µM (inactive)
GI50 [35]: > 100 µM (inactive)
GI50 [36]: > 100 µM (inactive)
GI50 [37]: > 100 µM (inactive)
GI50 [38]: > 100 µM (inactive)
GI50 [39]: > 100 µM (inactive)
GI50 [40]: > 100 µM (inactive)
GI50 [41]: > 100 µM (inactive)
GI50 [42]: > 100 µM (inactive)
GI50 [43]: > 100 µM (inactive)
GI50 [45]: > 100 µM (inactive)
GI50 [46]: > 100 µM (inactive)
GI50 [48]: > 100 µM (inactive)
GI50 [49]: > 100 µM (inactive)
GI50 [50]: > 100 µM (inactive)
GI50 [51]: > 100 µM (inactive)
GI50 [58]: > 100 µM (inactive)
GI50 [52]: > 100 µM (inactive)
GI50 [53]: > 100 µM (inactive)
GI50 [54]: > 100 µM (inactive)
GI50 [56]: > 100 µM (inactive)
GI50 [59]: > 100 µM (inactive)
